What was measured:
Format in all cases: cell-based
Settings in all cases: compounds at 50 nM and 500 nM
IKZF3 = target: T1, IKZF3 (Homo sapiens, UniProt Q96SW2+Q9UKT9); experiment: Western blot degradation of IKZF3 in hPBMCs (24 h)
T1 construct: The supernatant was aspirated as the extracted total cell protein; endogenous in cells; host or cells: human peripheral blood mononuclear cells (hPBMCs)
Outline: (§1)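 Compounds were tested at 50 nM and 500 nM on hPBMCs (1×10^6 cells/mL) for 24 h, alongside DMSO. Proteins were detected by Western blot after denaturation at 95 °C; remaining protein computed from normalised band grayscale.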

GSPT1 = target: T2, GSPT1 (Homo sapiens, UniProt P15170+Q96SW2); experiment: Western blot degradation of GSPT1 in hPBMCs (24 h)
T2 construct: The supernatant was aspirated as the extracted total cell protein; endogenous in cells; host or cells: human peripheral blood mononuclear cells (hPBMCs)
Outline: as §1

CK1α = target: T3, CK1α (Homo sapiens, UniProt P48729+Q96SW2); experiment: Western blot degradation of CK1α in hPBMCs (24 h)
T3 construct: The supernatant was aspirated as the extracted total cell protein; endogenous in cells; host or cells: human peripheral blood mononuclear cells (hPBMCs)
Outline: as §1

IKZF2 = target: T4, IKZF2 (Homo sapiens, UniProt Q96SW2+Q9UKS7); experiment: Western blot degradation of IKZF2 in hPBMCs (24 h)
T4 construct: The supernatant was aspirated as the extracted total cell protein; endogenous in cells; host or cells: human peripheral blood mononuclear cells (hPBMCs)
Outline: as §1

WEE1 = target: T5, WEE1 (Homo sapiens, UniProt P30291+Q96SW2); experiment: Western blot degradation of WEE1 in hPBMCs (24 h)
T5 construct: The supernatant was aspirated as the extracted total cell protein; endogenous in cells; host or cells: human peripheral blood mononuclear cells (hPBMCs)
Outline: as §1

IKZF1 = target: T6, IKZF1 (Homo sapiens, UniProt Q13422+Q96SW2); experiment: Western blot degradation of IKZF1 in hPBMCs (24 h)
T6 construct: The supernatant was aspirated as the extracted total cell protein; endogenous in cells; host or cells: human peripheral blood mononuclear cells (hPBMCs)
Outline: as §1

T4 sequence (Q9UKS7 whole entry): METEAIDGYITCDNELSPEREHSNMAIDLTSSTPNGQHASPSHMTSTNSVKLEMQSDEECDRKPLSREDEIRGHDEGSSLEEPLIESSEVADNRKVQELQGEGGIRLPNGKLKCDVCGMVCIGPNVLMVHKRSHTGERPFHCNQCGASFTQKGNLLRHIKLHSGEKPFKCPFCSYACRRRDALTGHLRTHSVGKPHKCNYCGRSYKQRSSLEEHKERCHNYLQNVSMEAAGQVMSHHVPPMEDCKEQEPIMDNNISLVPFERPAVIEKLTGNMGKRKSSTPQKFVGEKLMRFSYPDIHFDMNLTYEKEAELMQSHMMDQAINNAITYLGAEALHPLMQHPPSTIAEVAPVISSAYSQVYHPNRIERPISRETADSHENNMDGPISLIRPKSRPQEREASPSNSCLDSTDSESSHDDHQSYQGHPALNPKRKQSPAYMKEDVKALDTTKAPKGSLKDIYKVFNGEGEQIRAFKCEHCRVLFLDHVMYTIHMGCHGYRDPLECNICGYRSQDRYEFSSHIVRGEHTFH
T4 sequence (Q96SW2 whole entry): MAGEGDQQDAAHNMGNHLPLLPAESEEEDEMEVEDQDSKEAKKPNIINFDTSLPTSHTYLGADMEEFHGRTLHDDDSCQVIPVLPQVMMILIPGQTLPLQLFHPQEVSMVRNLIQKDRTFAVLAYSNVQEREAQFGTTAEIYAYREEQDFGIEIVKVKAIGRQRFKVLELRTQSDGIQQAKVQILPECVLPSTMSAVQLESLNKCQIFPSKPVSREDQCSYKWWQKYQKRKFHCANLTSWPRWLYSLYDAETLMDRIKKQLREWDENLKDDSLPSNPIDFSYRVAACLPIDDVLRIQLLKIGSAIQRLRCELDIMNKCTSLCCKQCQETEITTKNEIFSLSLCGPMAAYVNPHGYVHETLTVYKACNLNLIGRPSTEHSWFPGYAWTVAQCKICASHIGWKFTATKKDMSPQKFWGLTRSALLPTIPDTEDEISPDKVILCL
T4 sequence (Q16531 whole entry partner): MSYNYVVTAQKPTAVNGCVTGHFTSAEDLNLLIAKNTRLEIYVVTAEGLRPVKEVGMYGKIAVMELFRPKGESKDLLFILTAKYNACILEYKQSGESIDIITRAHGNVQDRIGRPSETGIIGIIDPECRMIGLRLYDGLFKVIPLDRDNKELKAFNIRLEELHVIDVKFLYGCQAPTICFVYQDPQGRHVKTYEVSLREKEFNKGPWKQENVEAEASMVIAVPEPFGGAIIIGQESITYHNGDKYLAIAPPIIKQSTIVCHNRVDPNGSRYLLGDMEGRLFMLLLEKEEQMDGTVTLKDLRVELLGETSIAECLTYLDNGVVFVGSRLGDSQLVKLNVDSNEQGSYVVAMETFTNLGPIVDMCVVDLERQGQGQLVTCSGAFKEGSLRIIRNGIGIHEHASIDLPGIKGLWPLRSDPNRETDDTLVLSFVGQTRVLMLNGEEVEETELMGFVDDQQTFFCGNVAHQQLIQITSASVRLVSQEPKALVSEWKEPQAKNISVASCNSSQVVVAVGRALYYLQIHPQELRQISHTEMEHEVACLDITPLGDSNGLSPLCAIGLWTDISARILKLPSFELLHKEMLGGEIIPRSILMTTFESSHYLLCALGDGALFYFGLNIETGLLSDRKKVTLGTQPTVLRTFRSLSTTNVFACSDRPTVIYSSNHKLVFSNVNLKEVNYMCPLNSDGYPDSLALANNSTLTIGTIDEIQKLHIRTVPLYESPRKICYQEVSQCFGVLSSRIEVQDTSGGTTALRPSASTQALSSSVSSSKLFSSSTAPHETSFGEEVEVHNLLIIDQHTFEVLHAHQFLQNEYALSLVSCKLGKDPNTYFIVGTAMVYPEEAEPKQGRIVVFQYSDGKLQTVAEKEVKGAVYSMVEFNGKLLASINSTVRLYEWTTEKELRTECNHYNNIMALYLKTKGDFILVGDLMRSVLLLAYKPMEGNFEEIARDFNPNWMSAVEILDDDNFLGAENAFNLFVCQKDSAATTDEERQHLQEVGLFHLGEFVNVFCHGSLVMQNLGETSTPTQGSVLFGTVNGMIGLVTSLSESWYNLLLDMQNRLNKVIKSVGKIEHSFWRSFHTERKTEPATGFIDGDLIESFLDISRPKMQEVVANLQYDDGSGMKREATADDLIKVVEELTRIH
T1 sequence (Q9UKT9 whole entry): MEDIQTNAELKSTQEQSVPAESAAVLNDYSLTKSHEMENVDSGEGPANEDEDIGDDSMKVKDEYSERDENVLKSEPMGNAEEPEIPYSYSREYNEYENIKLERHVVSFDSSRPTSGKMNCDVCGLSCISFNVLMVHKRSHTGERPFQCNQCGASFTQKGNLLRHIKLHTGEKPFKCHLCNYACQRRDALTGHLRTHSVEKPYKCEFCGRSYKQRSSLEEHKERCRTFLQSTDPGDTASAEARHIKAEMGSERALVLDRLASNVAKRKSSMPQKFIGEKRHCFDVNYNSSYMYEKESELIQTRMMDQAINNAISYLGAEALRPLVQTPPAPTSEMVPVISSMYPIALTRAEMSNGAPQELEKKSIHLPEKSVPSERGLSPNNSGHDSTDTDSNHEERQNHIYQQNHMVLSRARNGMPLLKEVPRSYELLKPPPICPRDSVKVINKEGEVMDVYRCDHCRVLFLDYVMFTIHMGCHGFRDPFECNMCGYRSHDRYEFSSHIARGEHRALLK
T1 sequence (Q96SW2 whole entry): as the sequence (Q96SW2 whole entry) above
T1 sequence (Q16531 whole entry partner): as the sequence (Q16531 whole entry partner) above
T6 sequence (Q13422 whole entry): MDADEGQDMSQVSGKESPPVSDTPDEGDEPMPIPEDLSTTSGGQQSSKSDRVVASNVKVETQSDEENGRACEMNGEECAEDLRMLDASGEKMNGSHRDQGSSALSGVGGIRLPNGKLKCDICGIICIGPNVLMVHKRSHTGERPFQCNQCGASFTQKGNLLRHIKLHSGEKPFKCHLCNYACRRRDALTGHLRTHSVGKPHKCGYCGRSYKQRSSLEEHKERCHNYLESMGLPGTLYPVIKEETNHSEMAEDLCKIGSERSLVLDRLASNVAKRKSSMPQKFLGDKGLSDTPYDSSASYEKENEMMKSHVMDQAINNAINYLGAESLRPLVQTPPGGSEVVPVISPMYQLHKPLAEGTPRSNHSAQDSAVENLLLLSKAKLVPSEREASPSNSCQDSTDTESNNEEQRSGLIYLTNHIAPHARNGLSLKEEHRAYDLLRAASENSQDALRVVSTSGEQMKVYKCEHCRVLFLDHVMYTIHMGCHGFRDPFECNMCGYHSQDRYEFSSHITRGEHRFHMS
T6 sequence (Q96SW2 whole entry): as the sequence (Q96SW2 whole entry) above
T6 sequence (Q16531 whole entry partner): as the sequence (Q16531 whole entry partner) above
T5 sequence (P30291 whole entry): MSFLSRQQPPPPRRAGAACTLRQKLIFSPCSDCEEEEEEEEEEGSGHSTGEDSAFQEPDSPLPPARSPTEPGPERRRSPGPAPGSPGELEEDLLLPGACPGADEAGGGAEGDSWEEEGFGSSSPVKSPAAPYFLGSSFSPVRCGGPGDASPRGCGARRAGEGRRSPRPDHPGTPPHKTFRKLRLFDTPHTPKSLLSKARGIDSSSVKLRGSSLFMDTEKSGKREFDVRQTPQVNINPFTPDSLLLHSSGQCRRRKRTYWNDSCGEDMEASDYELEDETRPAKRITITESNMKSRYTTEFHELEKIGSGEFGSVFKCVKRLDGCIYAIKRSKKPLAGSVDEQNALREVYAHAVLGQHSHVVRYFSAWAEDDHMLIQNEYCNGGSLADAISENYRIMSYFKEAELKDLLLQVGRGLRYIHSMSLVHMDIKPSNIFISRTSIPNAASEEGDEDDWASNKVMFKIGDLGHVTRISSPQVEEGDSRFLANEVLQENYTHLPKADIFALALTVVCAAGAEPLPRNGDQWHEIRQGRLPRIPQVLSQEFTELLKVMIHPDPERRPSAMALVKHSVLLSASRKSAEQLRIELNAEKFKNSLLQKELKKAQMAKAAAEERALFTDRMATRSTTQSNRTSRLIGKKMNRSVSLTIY
T5 sequence (Q96SW2 whole entry): as the sequence (Q96SW2 whole entry) above
T5 sequence (Q16531 whole entry partner): as the sequence (Q16531 whole entry partner) above
T3 sequence (P48729 whole entry): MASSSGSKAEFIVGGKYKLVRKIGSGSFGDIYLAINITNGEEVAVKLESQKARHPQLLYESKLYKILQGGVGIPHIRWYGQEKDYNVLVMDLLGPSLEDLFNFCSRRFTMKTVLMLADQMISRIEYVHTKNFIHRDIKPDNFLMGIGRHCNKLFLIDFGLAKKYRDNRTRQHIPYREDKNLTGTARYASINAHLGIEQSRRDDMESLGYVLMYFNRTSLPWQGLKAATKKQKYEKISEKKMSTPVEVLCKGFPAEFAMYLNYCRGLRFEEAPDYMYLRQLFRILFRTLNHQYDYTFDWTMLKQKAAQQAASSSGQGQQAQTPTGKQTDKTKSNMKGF
T3 sequence (Q96SW2 whole entry): as the sequence (Q96SW2 whole entry) above
T3 sequence (Q16531 whole entry partner): as the sequence (Q16531 whole entry partner) above

Row | Compound | IKZF3 substrate protein remaining % (IKZF3) | GSPT1 substrate protein remaining % (GSPT1) | CK1α substrate protein remaining % (CK1α) | IKZF2 substrate protein remaining % (IKZF2) | WEE1 substrate protein remaining % (WEE1) | IKZF1 substrate protein remaining % (IKZF1)
1 | O=C1CCN(N2C(=O)c3ccc(CN4CCN(c5cncc(Cl)c5Cl)CC4)cc3C2=O)C(=O)N1 [GT-06972, 5-((4-(4,5-dichloropyridin-3-yl)piperazin-1-yl)methyl)-2-(2,4-dioxotetrahydropyrimidin-1(2H)-yl)isoindoline-1,3-dione] | B (80%< substrate protein remaining % ≤100%) | B (80%< substrate protein remaining % ≤100%) | B (80%< substrate protein remaining % ≤100%) | A (0% ≤ substrate protein remaining % ≤80%) | A (0% ≤ substrate protein remaining % ≤80%) | B (80%< substrate protein remaining % ≤100%)
2 | O=C1CCN(N2C(=O)c3ccc(CN4CCN(c5c(Cl)ccnc5Cl)CC4)cc3C2=O)C(=O)N1 [GT-06973, 5-((4-(2,4-dichloropyridin-3-yl)piperazin-1-yl)methyl)-2-(2,4-dioxotetrahydropyrimidin-1(2H)-yl)isoindoline-1,3-dione] | A (0% ≤ substrate protein remaining % ≤80%) | B (80%< substrate protein remaining % ≤100%) | B (80%< substrate protein remaining % ≤100%) | B (80%< substrate protein remaining % ≤100%) | A (0% ≤ substrate protein remaining % ≤80%) | A (0% ≤ substrate protein remaining % ≤80%)
3 | O=C1CCN(N2Cc3cc(CN4CCN(c5c(Cl)ccnc5Cl)CC4)ccc3C2=O)C(=O)N1 [GT-06974, 1-(5-((4-(2,4-dichloropyridin-3-yl)piperazin-1-yl)methyl)-1-oxoisoindolin-2-yl)dihydropyrimidine-2,4(1H,3H)-dione] | A (0% ≤ substrate protein remaining % ≤80%) | B (80%< substrate protein remaining % ≤100%) | B (80%< substrate protein remaining % ≤100%) | B (80%< substrate protein remaining % ≤100%) | A (0% ≤ substrate protein remaining % ≤80%) | A (0% ≤ substrate protein remaining % ≤80%)
4 | O=C1CCN(N2C(=O)c3ccc(CN4CCN(c5ccc(Cl)nc5)CC4)cc3C2=O)C(=O)N1 [GT-07027, 5-((4-(6-chloropyridin-3-yl)piperazin-1-yl)methyl)-2-(2,4-dioxotetrahydropyrimidin-1(2H)-yl)isoindoline-1,3-dione] | B (80%< substrate protein remaining % ≤100%) | A (0% ≤ substrate protein remaining % ≤80%) | B (80%< substrate protein remaining % ≤100%) | B (80%< substrate protein remaining % ≤100%) | A (0% ≤ substrate protein remaining % ≤80%) | B (80%< substrate protein remaining % ≤100%)
5 | O=C1CCN(N2Cc3cc(CN4CCN(c5ncnc(Cl)c5Cl)CC4)ccc3C2=O)C(=O)N1 [GT-07028, 1-(5-((4-(5,6-dichloropyrimidin-4-yl)piperazin-1-yl)methyl)-1-oxoisoindolin-2-yl)dihydropyrimidine-2,4(1H,3H)-dione] | B (80%< substrate protein remaining % ≤100%) | A (0% ≤ substrate protein remaining % ≤80%) | B (80%< substrate protein remaining % ≤100%) | B (80%< substrate protein remaining % ≤100%) | A (0% ≤ substrate protein remaining % ≤80%) | B (80%< substrate protein remaining % ≤100%)

From patent US20260356819A1, “OXOISOINDOLINYL-SUBSTITUTED […] DERIVATIVE AND USE THEREOF” (GLUETACS THERAPEUTICS (SHANGHAI) CO., LTD., priority 2023, published 2026)
